Consider seven compounds from paper PMC11078956, “Structural investigation of interactions between halogenated flavonoids and the lipid membrane along with their role as cytotoxic agents” (Scientific Reports, 2024).

The first data set deals with RDSVS-TCC1 cells. The data set can be described thus: MTT cytotoxicity, RDSVS-TCC1. Format: cell-based, canine. The conditions noted are these: Canis lupus familiaris, 72 h, mean ± SD, read-out: IC50 values after 72 h. The text has this: (§1) The study involved four canine cancer cell lines: RDSVS-TCC1 and K9NK (bladder cancer), CLBL-1 (B-cell lymphoma), GL-1 (B/T-cell leukemia) and noncancerous cell line CF2TH (fetal canine thymus). CLBL-1 was obtained from Barbara C.Ruetgen from the Institute of Immunology, Department of Pathobiology, University of Veterinary Medicine, Vienna[48]. GL-1 from Yasuhito Fujino and Hajime Tsujimoto of the University of Tokyo, Department of Veterinary Internal Medicine[49]. The CF2TH cell line was purchased from American Type Culture Collection (ATCC, Rockville, MD, USA).
(§2) The cell lines were maintained in RPMI- 1640 (CLBL-1, GL-1 and CF2TH) (Gibco, Grand Island, NY, USA) or DMEM (Institute of Immunology and Experimental Therapy, Polish Academy of Sciences, Wrocław, Poland) (RDSVS-TCC1, K9NK) culture medium supplemented with 10% fetal bovine serum FBS (Gibco, Grand Island, NY, USA), 100 units/mL penicillin and […] streptomycin and 1% of L-glutamine (Sigma Aldrich, Steinheim, Germany).
(§3) The cytotoxicity assay was determined by MTT test after 72 h of treatment, according to the procedure described previously[50] with minor modifications.
(§4) In summary, the cells plated at the density of 3*10^4 (k9NK, RDSVS-TCC1), 2*10^5 (CLBL-1, GL-1) and 7.5*10^3 (CF2TH) per mililiter were seeded in 96-well plates (NUNC, Denmark).
(§5) The concentration of tested flavonoids was in the range 1.25–50 µM and DMSO concentration was < 1% in each dilution which is considered harmless to the cells). After incubation for 72 h, 10 µl of 3-(4,5-dimethylthiazol-2-yl)-2,5-diphenyltetrazolium bromide (MTT) solution was added to each well followed by 4 h incubation, then 40 μL of lysis buffer were added. The optical density (OD) of formazan formed from MTT was measured after 24 h using a spectrophotometric microplate reader (Spark, Tecan, Männedorf, Switzerland) at […] 570 nm.
(§6) The results were: determined from more than three independent experiments (three wells each) and presented as mean IC50 value ± SD.
As for `O=c1cc(-c2ccccc2Cl)oc2ccccc12` [D1, 2′-chloroflavone], the IC50 – broadly, the concentration that gives 50% inhibition – was found to be 32.6 ± 8.04 µM.

As for `O=c1cc(-c2cccc(Cl)c2)oc2ccccc12` [D2, 3′-chloroflavone], the concentration for half-maximal inhibition (IC50) came out at 31.6 ± 5.97 µM.

`O=c1cc(-c2ccc(Cl)cc2)oc2ccccc12` [D3, 4′-chloroflavone]: the half-inhibitory concentration (IC50) came out at 28.2 ± 5.62 µM.

Consider `O=c1cc(-c2ccccc2)oc2ccc(Cl)cc12` [D4, 6-chloroflavone], for which the 50% inhibitory concentration (IC50) was found to be 58.7 ± 13.3 µM.

With `O=c1cc(-c2ccccc2)oc2c(Cl)cc(Cl)cc12` [D5, 6,8-dichloroflavone], the half-maximal inhibitory concentration (IC50) amounted to 43 ± 11.3 µM.

Consider `O=c1cc(-c2ccccc2)oc2c(Br)cc(Cl)cc12` [D6, 8-bromo-6-chloroflavone], for which the half-maximal inhibitory concentration (IC50) worked out at 37.7 ± 14.4 µM.

The next data set deals with K9NK cells. The data set can be described thus: MTT cytotoxicity, K9NK. Format: cell-based, canine. The settings on record: Canis lupus familiaris, 72 h, mean ± SD, read-out: IC50 values after 72 h.
Source text: as §1, §2, §3, §4, §5, §6
Regarding `O=c1cc(-c2ccccc2Cl)oc2ccccc12` [D1, 2′-chloroflavone], the half-inhibitory concentration (IC50) worked out at 59.9 ± 14.7 µM.

`O=c1cc(-c2cccc(Cl)c2)oc2ccccc12` [D2, 3′-chloroflavone]: the IC50 was found to be 31.2 ± 6.87 µM.

Regarding `O=c1cc(-c2ccc(Cl)cc2)oc2ccccc12` [D3, 4′-chloroflavone], the IC50 was found to be 19.4 ± 6.75 µM.

With `O=c1cc(-c2ccccc2)oc2ccc(Cl)cc12` [D4, 6-chloroflavone], the IC50 is 35.6 ± 3.41 µM.

Take `O=c1cc(-c2ccccc2)oc2c(Cl)cc(Cl)cc12` [D5, 6,8-dichloroflavone]: the half-maximal inhibitory concentration (IC50) came to 30.5 ± 13.8 µM.

For `O=c1cc(-c2ccccc2)oc2c(Br)cc(Cl)cc12` [D6, 8-bromo-6-chloroflavone], the IC50 worked out at 29.1 ± 16.2 µM.

For the next data set, the system named is GL-1 cells. In words: MTT cytotoxicity, GL-1. The data set is classed as cell-based, canine. The conditions noted are these: Canis lupus familiaris; GL-1, MTT, 72 h, mean ± SD; read-out: IC50 values after 72 h.
Source text: as §1, §2, §3, §4, §5, §6
Regarding `O=c1cc(-c2ccccc2Cl)oc2ccccc12` [D1, 2′-chloroflavone], the half-inhibitory concentration (IC50) worked out at 26.5 ± 3.05 µM.

With `O=c1cc(-c2cccc(Cl)c2)oc2ccccc12` [D2, 3′-chloroflavone], the IC50 is 26.5 ± 4.57 µM.

On to `O=c1cc(-c2ccc(Cl)cc2)oc2ccccc12` [D3, 4′-chloroflavone], for which the 50% inhibitory concentration (IC50) came out at 35.1 ± 6.17 µM.

In the case of `O=c1cc(-c2ccccc2)oc2ccc(Cl)cc12` [D4, 6-chloroflavone], the IC50 came out at 62.4 ± 2.89 µM.

For `O=c1cc(-c2ccccc2)oc2c(Cl)cc(Cl)cc12` [D5, 6,8-dichloroflavone], the IC50 came to 38.8 ± 6.48 µM.

With `O=c1cc(-c2ccccc2)oc2c(Br)cc(Cl)cc12` [D6, 8-bromo-6-chloroflavone], the IC50 stood at 47.2 ± 1.41 µM.

In a further data set the test system is CLBL-1 cells. The data set can be described thus: MTT cytotoxicity, CLBL-1. The settings on record: Canis lupus familiaris; CLBL-1, MTT, 72 h, mean ± SD; read-out: IC50 values after 72 h. Format: cell-based, canine.
Source text: as §1, §2, §3, §4, §5, §6
On to `O=c1cc(-c2ccccc2Cl)oc2ccccc12` [D1, 2′-chloroflavone], for which the concentration for half-maximal inhibition (IC50) was determined as 26.6 ± 3.61 µM.

As for `O=c1cc(-c2cccc(Cl)c2)oc2ccccc12` [D2, 3′-chloroflavone], the half-maximal inhibitory concentration (IC50) stood at 26.3 ± 6.33 µM.

For `O=c1cc(-c2ccc(Cl)cc2)oc2ccccc12` [D3, 4′-chloroflavone], the 50% inhibitory concentration (IC50) amounted to 32.8 ± 2.11 µM.

Turning to `O=c1cc(-c2ccccc2)oc2ccc(Cl)cc12` [D4, 6-chloroflavone], the IC50 amounted to 74.4 ± 28.7 µM.

As to `O=c1cc(-c2ccccc2)oc2c(Cl)cc(Cl)cc12` [D5, 6,8-dichloroflavone], the 50% inhibitory concentration (IC50) was determined as 76.4 ± 23.2 µM.

For `O=c1cc(-c2ccccc2)oc2c(Br)cc(Cl)cc12` [D6, 8-bromo-6-chloroflavone], the IC50 amounted to 38.1 ± 7.81 µM.

A further data set has as its system CF2TH cells. In words: MTT cytotoxicity, CF2TH normal cell line. The data set is classed as cell-based, canine. The conditions noted are these: Canis lupus familiaris, 72 h, mean ± SD, read-out: IC50 values after 72 h.
Source text: as §1, §2, §3, §4, §5, §6
In the case of `O=c1cc(-c2ccccc2Cl)oc2ccccc12` [D1, 2′-chloroflavone], the IC50 is 28.2 ± 6.6 µM.

On to `O=c1cc(-c2cccc(Cl)c2)oc2ccccc12` [D2, 3′-chloroflavone], for which the IC50 is 22.9 ± 6.88 µM.

Take `O=c1cc(-c2ccc(Cl)cc2)oc2ccccc12` [D3, 4′-chloroflavone]: the concentration for half-maximal inhibition (IC50) was found to be 28.4 ± 5.02 µM.

In the case of `O=c1cc(-c2ccccc2)oc2ccc(Cl)cc12` [D4, 6-chloroflavone], the IC50 is 80.9 ± 14.1 µM.

As for `O=c1cc(-c2ccccc2)oc2c(Cl)cc(Cl)cc12` [D5, 6,8-dichloroflavone], the IC50 amounted to 28.5 ± 18 µM.

For `O=c1cc(-c2ccccc2)oc2c(Br)cc(Cl)cc12` [D6, 8-bromo-6-chloroflavone], the half-inhibitory concentration (IC50) was 38.1 ± 7.87 µM.

Another data set deals with RDSVS-TCC1, GL-1, CLBL-1, CF2TH cells. The data set can be described thus: MTT cytotoxicity, all lines tested except K9NK. The data set is classed as cell-based, canine. The settings on record: Canis lupus familiaris, 72 h.
Source text: as §1, §2, §3, §4, §5, §6
On to `O=c1cc(-c2ccccc2Cl)oc2ccccc12` [D1, 2′-chloroflavone], for which the IC50 is around 30 µM.

Compound `O=c1cc(-c2cccc(Cl)c2)oc2ccccc12` [D2, 3′-chloroflavone] gave an IC50 of around 30 µM.

Compound `O=c1cc(-c2ccc(Cl)cc2)oc2ccccc12` [D3, 4′-chloroflavone] showed an IC50 of around 30 µM.

System in a further data set: not listed separately
The data set can be described thus: Hemolysis of red blood cells. The settings on record: human, human red blood cells (erythrocytes), 30 μM, read-out: degree of haemolysis. The data set is classed as cell-based. The protocol: The cytotoxicity level of the compounds was assessed through a haemolytic activity test, measuring the impact of six compounds at concentrations of […] on human red blood cells (RBCs). According to toxicity categorization, compounds are considered highly toxic if they cause a haemolysis rate of 90–100% and are considered non-toxic if the haemolysis rate falls within the range of 0–9%[28].
Hemolysis, a method to assess the release of hemoglobin from red blood cells (RBCs), was comprehensively explained in our prior research.
For erythrocytes with a hematocrit level of 12%, the compounds were introduced at concentrations of 10, 20, 40 and 60 μM. The prepared samples were kept at 37 °C for 1 and 24 h.
After the incubation period, the samples underwent centrifugation, and the hemoglobin concentration in the supernatants was quantified using a UV–VIS spectrophotometer (Specord 40, AnalytikJena) at a wavelength of 540 nm. The percentage of RBCs hemolysis were determined by comparing the absorbance of hemoglobin in the tested samples to the absorbance of hemoglobin in completely hemolyzed cells (100%). Samples achieving total hemolysis (100%) were generated by adding distilled water.
As to `O=c1cc(-c2ccccc2)oc2ccc(Cl)cc12` [D4, 6-chloroflavone], the hemolysis at 24 h, 30 µM was 10.8 ± 5.46%.

Still in this data set, the particulars now being: human, human red blood cells (erythrocytes), 40 μM, read-out: degree of haemolysis.
Consider `O=c1cc(-c2cccc(Cl)c2)oc2ccccc12` [D2, 3′-chloroflavone], for which the hemolysis at 24 h, 40 µM turned out to be 16 ± 1.78%.

The data set is the same for the next values; noted with them: human, human red blood cells (erythrocytes), 50 μM, read-out: degree of haemolysis.
Consider `O=c1cc(-c2cccc(Cl)c2)oc2ccccc12` [D2, 3′-chloroflavone], for which the hemolysis at 24 h, 50 µM was determined as 22.7 ± 1.98%.

System in a further data set: not given
Experiment: not given
Conditions: not given
For `O=c1cc(-c2ccccc2Cl)oc2ccccc12` [D1, 2′-chloroflavone], the melting point – broadly, the temperature, or range, at which the solid turns liquid – lay in the range of 109 to 110 °C.

The next data set has as its system breast cancer cells MCF-7.
Experiment: not given
Set-up: method as in PMID 32364671. The settings on record: cited from earlier work.
With `O=c1cc(-c2ccccc2)oc2c(Br)c(O)c(O)c(O)c12` [8-bromobaicalei], the IC50 was 10 ± 3 µM.
